What was measured:
PAC1 = molecular target: T1, PAC1 (Mus musculus, UniProt Q9ES52); assay: Small angle X-ray scattering of PAC1; details: 190 μM PAC1 with 570 μM compound
T1 construct: PAC1 and PAC2 consists of phosphatase and C2 domain (residues aa 402-861 and aa 402-857 respectively); HMT-tag (His6-MBP-TEV site) (N); made in house; host or cells: E. coli
T1 sequence (Q9ES52 402-861): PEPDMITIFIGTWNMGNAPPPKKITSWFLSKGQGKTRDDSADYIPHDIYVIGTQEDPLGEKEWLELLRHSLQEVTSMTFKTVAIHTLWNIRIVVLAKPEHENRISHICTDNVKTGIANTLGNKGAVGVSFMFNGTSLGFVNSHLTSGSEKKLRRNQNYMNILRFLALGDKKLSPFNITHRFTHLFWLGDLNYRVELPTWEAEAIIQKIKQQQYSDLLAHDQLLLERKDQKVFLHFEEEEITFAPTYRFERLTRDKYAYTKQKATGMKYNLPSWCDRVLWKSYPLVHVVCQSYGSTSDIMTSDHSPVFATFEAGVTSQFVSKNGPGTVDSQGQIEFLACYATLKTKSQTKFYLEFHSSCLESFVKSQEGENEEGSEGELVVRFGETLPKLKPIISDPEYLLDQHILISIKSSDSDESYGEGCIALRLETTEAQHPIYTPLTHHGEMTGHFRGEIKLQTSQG
Procedure: Small angle X-ray scattering. PAC1 samples in 190 μM in 50 mM TrisHCl (pH7.4) 150 mM NaCl, 1 mM TCEP and 2% EtOH with and without 570 μM compound I-1 ([…]). Dynamic Light Scattering (DLS) data for PAC1 and PAC1-compound I-1 complexes were collected prior to SAXS data collection to confirm that all the samples are highly pure and suitable for data collection. The data collection was performed on a 3-pinhole camera (S-MAX3000; Rigaku Americas, The Woodlands, Tex.) equipped with a Rigaku MicroMaxp002 microfocus sealed tube (Cu Kα radiation at 1.54 Å) and a Confocal Max-Flux (CMF) optics system operating at 40 W (Rigaku). Scattering data were recorded using a 200 mm multiwire two-dimensional detector. The data for both samples and buffer were collected for 3 h for each sample within the range of 0.008≤s≤0.26 Å-1 and processed according to the method previously described, where s=4π sin θ/λ (Patel et al., 2011, Patel et al., 2010, Patel et al., 2012). The Normalized Spatial Discrepancy (NSD) of the non-liganded and liganded PAC1 models were 0.6 and 1.0 respectively.

[1] = molecular target: T2, Clover-SHIP1 and mRuby2-STAT3 (Mus musculus, UniProt Q9ES52); assay: Acceptor photobleaching FRET analysis; type: cell-based; details: J17 SHIP1−/− cells expressing Clover-SHIP1/mRuby2-STAT3; 1 minute; 100 ng/ml IL10, IL6 or 20 μM I-2
T2 construct: expressed in transfected cells; host or cells: J17 (SHIP1-/- mouse macrophage line), lentiviral transduction
Procedure: Acceptor Photobleaching FRET analysis. J17 cells expressing Clover-SHIP1 and/or mRuby2-STAT3 were seeded at 50×10^4 cells per well in 8-well Ibidi p-Slides (Ibidi GmbH, Martinsried, Germany). After overnight incubation, cells were serum-starved with Mac media containing 1% serum for 3 hours before media replacement with Leibovitz's (L-15) media (Invitrogen, Burlington, ON) supplemented with 1% serum, 10 μM β-mercaptoethanol, 150 μM monothioglycolate and 1 mM L-glutamine for confocal microscopy imaging. Cells were imaged on a Leica SP8X on DMi8 confocal microscope system with a 63×/1.3 Gly HC PL APO CS2 objective using a white light laser line with 488 nm for donor excitement and 555 nm for acceptor excitement. Photobleaching FRET analysis was performed by measuring Clover-SHIP1 donor fluorescence intensity before and after bleaching the acceptor, mRuby2-STAT3, within a field of cells ‘region of interest’ (ROI), at 100% laser intensity for 60 frames. Acceptor photobleaching was performed first in resting cells then at 1 minute (±5 seconds) following ‘mock’ stimulation with L-15 media, or L-15 media containing 100 ng/ml IL10, IL6 or 20 μM compound I-2. Donor and acceptor fluorescence intensity of individual cells within the bleached ROI was quantified before and after bleaching. Percentage FRET efficiency was calculated as % FRETeff=100×(Dpost−Dpre)/Dpost where Dpre and Dpost represent Clover-SHIP1 donor fluorescence intensity before and after bleaching, respectively.

DDIT4 = DDIT4 expression in macrophages; type: cell-based; details: compound by itself
[2] = system: LPS-stimulated TNFα production in BMDM; assay: Continuous flow culture of BMDM, TNFα kinetics; type: cell-based, mouse
Procedure: Production of bone marrow-derived macrophages. Bone marrow-derived macrophages (BMDMs) were generated by first collecting femurs and tibias from mice, and then flushing out the bone marrow through a 26-G needle. Extracted cells were plated, in Mac media supplemented with 5 ng/ml each of CSF-1 and GM-CSF (Stem Cell Technologies, Vancouver, BC), on a 10-cm tissue culture plate for 2 hours at 37° C. Non-adherent cells were collected and replated at 9×10^6 cells per 10-cm tissue culture plate. Cells were then cultured in the presence of CSF-1 and GM-CSF. Differentiated BMDMs were used after 7 to 8 days. All cells were maintained in a 37° C., 5% CO2, 95% humidity incubator.
Continuous Flow Cultures. The continuous flow apparatus facilitates constant stimulation and removal of cell supernatants to determine kinetic profiles of cytokine production over time. BMDMs were seeded at 3×10^6 cells per well in a 24-well tissue culture plate that had been coated with poly-L-lysine (Thermo Fisher Scientific, Nepean, ON) and rinsed with PBS. After overnight incubation, culture media was removed and Leibovitz's L-15 (L-15) media (Invitrogen, Burlington, ON) supplemented with 3% FCS, 10 μM β-mercaptoethanol and 150 μM monothioglycolate was added. Cells were allowed to equilibrate in L-15 media for 1 hour before being placed in the continuous flow apparatus. Stimulation solution was made in the same media equilibrated at 37° C., and was passed through a modified inlet fitted to the well by a syringe pump (New Era Syringe Pumps Inc., Farmingdale, N.Y.). A flow rate of 150 μl per minute was used. At the same time, cell supernatants were removed from the well at the same flow rate, and fractions were collected at 5-minute intervals over the course of 3 hours. These fractions were analyzed for secreted TNFα levels by ELISA.

T2 sequence (Q9ES52 whole entry): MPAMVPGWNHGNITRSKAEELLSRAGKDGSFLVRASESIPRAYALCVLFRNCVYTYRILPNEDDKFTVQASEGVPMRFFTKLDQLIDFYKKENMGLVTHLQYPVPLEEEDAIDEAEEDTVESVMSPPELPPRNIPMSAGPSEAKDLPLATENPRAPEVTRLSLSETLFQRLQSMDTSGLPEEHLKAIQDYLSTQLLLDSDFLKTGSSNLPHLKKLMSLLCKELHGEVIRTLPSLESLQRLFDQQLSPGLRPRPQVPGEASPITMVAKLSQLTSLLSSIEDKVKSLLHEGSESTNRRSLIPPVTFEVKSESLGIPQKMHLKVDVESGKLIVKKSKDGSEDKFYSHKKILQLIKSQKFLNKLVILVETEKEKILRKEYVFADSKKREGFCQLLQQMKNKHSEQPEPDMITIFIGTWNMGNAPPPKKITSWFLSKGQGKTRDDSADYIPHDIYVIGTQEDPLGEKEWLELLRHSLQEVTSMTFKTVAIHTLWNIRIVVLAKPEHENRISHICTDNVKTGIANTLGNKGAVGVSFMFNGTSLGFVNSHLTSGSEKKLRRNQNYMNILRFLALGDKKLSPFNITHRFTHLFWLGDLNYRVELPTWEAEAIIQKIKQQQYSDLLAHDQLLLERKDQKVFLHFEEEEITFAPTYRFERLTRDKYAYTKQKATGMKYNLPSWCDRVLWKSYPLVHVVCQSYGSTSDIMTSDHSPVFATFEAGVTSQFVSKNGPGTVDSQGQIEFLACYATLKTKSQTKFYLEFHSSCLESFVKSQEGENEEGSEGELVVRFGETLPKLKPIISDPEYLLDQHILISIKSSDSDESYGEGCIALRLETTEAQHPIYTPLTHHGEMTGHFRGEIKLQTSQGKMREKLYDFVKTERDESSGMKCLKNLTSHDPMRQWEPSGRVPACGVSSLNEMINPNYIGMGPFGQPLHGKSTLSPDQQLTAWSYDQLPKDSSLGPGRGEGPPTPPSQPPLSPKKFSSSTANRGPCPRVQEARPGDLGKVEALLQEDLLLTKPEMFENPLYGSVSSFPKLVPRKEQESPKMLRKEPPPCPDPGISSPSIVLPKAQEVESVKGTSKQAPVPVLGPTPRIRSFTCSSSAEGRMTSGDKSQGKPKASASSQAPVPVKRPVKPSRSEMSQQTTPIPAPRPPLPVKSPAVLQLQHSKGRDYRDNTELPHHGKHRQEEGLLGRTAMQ
T2 sequence (P42227 whole entry partner): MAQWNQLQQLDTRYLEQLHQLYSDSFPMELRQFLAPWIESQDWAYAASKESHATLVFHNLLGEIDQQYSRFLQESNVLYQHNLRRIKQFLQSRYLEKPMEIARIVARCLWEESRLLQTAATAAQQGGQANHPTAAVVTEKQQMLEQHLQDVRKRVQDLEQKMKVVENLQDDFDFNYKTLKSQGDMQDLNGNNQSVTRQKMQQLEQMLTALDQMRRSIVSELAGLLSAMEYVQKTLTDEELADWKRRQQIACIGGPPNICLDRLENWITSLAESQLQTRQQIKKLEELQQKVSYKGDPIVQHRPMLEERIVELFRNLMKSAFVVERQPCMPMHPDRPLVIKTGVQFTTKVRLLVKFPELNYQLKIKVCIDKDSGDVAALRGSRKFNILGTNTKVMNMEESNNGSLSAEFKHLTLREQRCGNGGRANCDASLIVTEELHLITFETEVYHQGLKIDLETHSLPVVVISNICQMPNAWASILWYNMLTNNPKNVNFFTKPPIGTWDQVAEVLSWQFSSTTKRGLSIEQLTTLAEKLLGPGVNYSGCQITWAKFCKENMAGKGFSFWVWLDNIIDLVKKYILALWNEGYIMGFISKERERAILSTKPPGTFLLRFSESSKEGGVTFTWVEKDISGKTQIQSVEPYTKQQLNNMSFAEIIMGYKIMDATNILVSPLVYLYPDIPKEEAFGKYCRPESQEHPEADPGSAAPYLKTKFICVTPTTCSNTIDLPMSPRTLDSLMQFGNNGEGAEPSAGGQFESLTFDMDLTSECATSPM

Row | Molecule | overall conformation of PAC1 on binding (SAXS) (PAC1) | Clover-mRuby2 FRET signal [1] | DDIT4 expression (DDIT4) | TNFα levels ([2]; LPS-stimulated SHIP1+/+ and STAT3+/+ BMDM) | inhibition of 3-hour TNFα peak ([2]; LPS-stimulated STAT3−/− and SHIP1−/− (KO) BMDM) | inhibition of 1-hour TNFα peak ([2]; LPS-stimulated STAT3−/− and SHIP1−/− BMDM)
1 | Cc1cc(O)cc2c1C1(C)CCC3C(C)(C)CCCC3(C)C1C2 (stereo not shown) [Compound I-1] | results in a change in its overall conformation |  |  |  |  | 
2 | CC12CCC3C(C)(C)C(N)CCC3(C)C1Cc1cc(O)cc(O)c12 (stereo not shown) [Compound I-2] |  | increases | by itself able to induce DDIT4 expression |  |  | 
3 | IL10: anti-inflammatory cytokine interleukin-10 |  | increases |  | reduces | partly impaired | completely impaired

From patent publication US20230174571A1, “METHOD OF TREATING SHIP1-MEDIATED DISEASES USING PELOROL DERIVATIVES” (Zebrapeutics Inc., priority 2020, published 2023)
